{"source": "patent US9399072B2", "about": "“Methods of treatment of pancreatic cancer” (Abraxis BioScience, LLC, priority 2010, dated 2016)", "key": {"[1]": {"system": "locally advanced pancreatic cancer", "conditions": "126 patients with locally advanced pancreatic cancer; cited from earlier work"}, "pancreatic cancer": {"system": "pancreatic cancer", "conditions": "in vivo; cited from earlier work"}, "[2]": {"system": "gemcitabine-resistant pancreatic cancer", "conditions": "second-line, small studies; cited from earlier work"}, "[3]": {"test": "Phase I study of Nab-paclitaxel with vandetanib: MTD, DLT, adverse events", "format": "in vivo, human", "from_the_text": "Patients were randomized to one of two cohorts. […] A 3+3 design was used."}}}
{"smiles": "O=c1[nH]cc(F)c(=O)[nH]1", "note": "[5-FU, 5-fluororuracil]", "values": [{"measurement": "median overall survival", "setting": "[1]", "result": 4.2, "unit": "months"}, {"measurement": "median time to disease progression", "setting": "[1]", "result": 0.9, "unit": "months"}]}
{"smiles": "Nc1ccn([C@@H]2O[C@H](CO)[C@@H](O)C2(F)F)c(=O)n1", "note": "[gemcitabine]", "values": [{"measurement": "median overall survival", "setting": "[1]", "result": 5.7, "unit": "months"}, {"measurement": "median time to disease progression", "setting": "[1]", "result": 2.1, "unit": "months"}, {"measurement": "median overall survival", "setting": "pancreatic cancer", "result": 6.0, "unit": "months"}, {"measurement": "median progression free survival", "setting": "pancreatic cancer", "result": 3.5, "unit": "months"}]}
{"smiles": "CC(=O)O[C@H]1C(=O)[C@@]2(C)[C@H]([C@H](OC(=O)c3ccccc3)[C@]3(O)C[C@H](OC(=O)[C@H](O)[C@@H](NC(=O)c4ccccc4)c4ccccc4)C(C)=C1C3(C)C)[C@]1(OC(C)=O)CO[C@@H]1C[C@@H]2O", "note": "[paclitaxel]", "values": [{"measurement": "median overall survival", "setting": "[2]", "result": 17.5, "unit": "weeks"}, {"measurement": "response rate", "setting": "[2]", "result": 6, "unit": "%"}]}
{"smiles": "COc1cc2c(Nc3ccc(Br)cc3F)ncnc2cc1OCC1CCN(C)CC1", "note": "[vandetanib]", "values": [{"measurement": "MTD", "setting": "[3]; cohort A: daily, combined with 100 mg/m^2 Nab-paclitaxel weekly for three out of four weeks", "result": 300, "unit": "mg"}, {"measurement": "MTD", "setting": "[3]; cohort B: daily, in combination with 260 mg/m^2 Nab-paclitaxel every three weeks", "result": 300, "unit": "mg"}]}
